The results in this text go back to patent US8440671B2, “Compositions comprising a phoshodiesterase-5 inhibitor and their use in methods of treatment” (priority 2007, dated 2013).

Data set [1] relates to subject with Parkinson's Disease. Description: Example 4: case report, subject with Parkinson's Disease given PI-5, SSRI and DI. The source says:
A fourth subject was diagnosed with Parkinson's Disease and administered a combination of PI-5, SSRI and DI.

In data set [2] the test system is subject with atypical Parkinson's Disease, severe seborrheic dermatitis and scarring facial acne rosacea. In kind it is in vivo. The text has this:
A third subject was diagnosed with atypical Parkinson's Disease with an initial presentation fifteen years earlier with cogwheel type diffuse tremor of low amplitude, diffuse muscular rigidity, mild bradykinesia, gait abnormalities.
Patient is a non-smoker and social drinker with minimal alcohol consumption and no history of drug abuse. Chronic problems of borderline hypertension (treated with diet and HYTRIN® (terazoin)), benign prostatic hypertrophy (treated with HYTRIN® (terazoin) and voding training), GERD treated intermittently as needed with PRILOSEC® (omeprazole) plus PEPCID® (famotidine) for short periods, DJD of cervical and lumbar spine treated intermittently with physical therapy, TYLENOL® (acetaminophen), occasional VICODIN® (acetaminophen/hydrocodone) as needed.

The subject of data set [3] is subject with Alzheimer's Disease and dementia. Conditions: for clinical status changes: cholinesterase inhibitor alone. The text has this:
A fifth subject was diagnosed with Alzheimer's Disease and dementia and administered a combination of PI-5, SSRI and CI.

Data set [4] concerns subject with rapidly progressive multi-system neurodegenerative disease, facial acne, vitiligo, gingival infections. In kind it is in vivo. The conditions noted are these: for clinical response to neurological disease, skin and mucous membrane disorders: each drug given individually; for substitution within the oral combination: Viagra 50 mg TID for oral Cialis, Paxil 20 mg TID for Luvox. The text has this:
A second subject was diagnosed with nonspecific but rapidly progressive multi-system neurodegenerative disease. […] Initial presentation was with abrupt onset dementia with rapid progression over 3-4 months. Severe, generalized myoclonus of high amplitude with ataxia, dyspahagia, central and peripheral respiratory distress (requiring CPAP), dizziness, and hypokinetic rigidity followed some one month later and have continued to progress as well as dementia.
Mild intermittent gingival infections requiring minimal surgical intervention with retraction from tooth line for over ten years.
Patient was a non-smoker with no alcohol or other drug consumption. Patient suffered from coexisting prior problem of chronic atrial fibrillation, currently rate controlled with exercise alone and anticoagulation intermittently with Coumadin.
The twenty four hour doses, put into 7.5 cc of water solution, was also applied topically to scar noted previously. […] Patient also takes Folic acid—1 mg per day, and Vitamin B6.

As for `CC(C)C[C@H]1C(=O)N2CCC[C@H]2[C@]2(O)O[C@](NC(=O)[C@@H]3C=C4c5cccc6[nH]c(Br)c(c56)C[C@H]4N(C)C3)(C(C)C)C(=O)N12` [Bromocriptine, bromocriptine], the “change on short periods of treatment” value in data set [1] (short periods later in disease) was “without significant change”.
`NC12CC3CC(CC(C3)C1)C2` [Amantadine, amantadine]: in data set [2] (chronic low-dose treatment), the “change in seborrheic dermatitis or acne rosacea” value is recorded as “No change” and the “improvement of all symptoms” value is on record as “little or no improvement”.
In the case of `Nc1c2c(nc3ccccc13)CCCC2` [COGNEX® (tacrine), tacrine], in data set [3], the clinical status changes result is reported as “without significant clinical status changes”. The “effect on all symptoms when added to the regimen” value in data set [1] (added to Luvox, Cialis, Sinemet regimen) is recorded as “mild improvements”. The “tolerability when added to the regimen” value in data set [1] (human, in vivo) was “discontinued secondary to gastrointestinal upset”. Besides, in data set [4], the “clinical response to neurological disease, skin and mucous membrane disorders” value is “without any clinical response”.
With `CN1CCc2cccc3c2[C@H]1Cc1ccc(O)c(O)c1-3` [Apomorphine, apomorphine], the “paradoxical response to IV Apomorphine” value in data set [2] (IV, part of work-up) is “decreased blood pressure and worsening of rigidity and tremor”.
With `Fc1ccc([C@@H]2CCNC[C@H]2COc2ccc3c(c2)OCO3)cc1` [Paxil, paroxetine], in data set [4], the “substitution within the oral combination” value was “equivalently substituted”.
As to `CCCc1nn(C)c2c(=O)[nH]c(-c3cc(S(=O)(=O)N4CCN(C)CC4)ccc3OCC)nc12` [VIAGRA® (sildenafil), sildenafil], in data set [4], the “substitution within the oral combination” value is given as “equivalently substituted”; the “clinical response to neurological disease, skin and mucous membrane disorders” value is “without any clinical response”.
With `COc1cc2c(cc1OC)C(=O)C(CC1CCN(Cc3ccccc3)CC1)C2` (centres unmarked) [ARICEPT® (donepezil), donepezil], the clinical status changes entry in data set [3] is given as “without significant clinical status changes”. The “substitution for COGNEX within the combination” value in data set [3] (two week period, without noticeable changes) is “successfully substituted”.
As to `COCCCC/C(=N\OCCN)c1ccc(C(F)(F)F)cc1` [LUVOX® (fluvoxamine), fluvoxamine], the “clinical response to neurological disease, skin and mucous membrane disorders” value in data set [4] was “without any clinical response”.
